Common to all, as to format: biochemical
One test deals with T1, human plasma kallikrein (Homo sapiens, UniProt P03952).
T1 construct: purchased Enzyme Research Laboratories HPKa 1303
Nature of the test: Enzyme inhibition assay (fluorogenic substrate H-Pro-Phe-Arg-AMC). The settings on record: Kallikrein inhibitory activity; 1 nM activated human kallikrein, 500 μM H-Pro-Phe-Arg-AMC, 1 hour room temperature; read-out: Avg. IC50. An outline of the steps: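 Activated enzyme (1 nM final) was preincubated 5 min at room temperature with peptides in 10-point 8-fold dilutions. The buffer was 50 mM Tris-HCl pH 7.2, 150 mM NaCl, 10 mM CaCl2, 0.05% Brij-35. After 1 h at room temperature with 500 μM substrate (final), fluorescence was read at 360/460 nm to derive IC50.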

The next test deals with T2, Factor XIa (Homo sapiens, UniProt P03951).
T2 construct: Factor XIa (Enzyme Research Laboratories, South Bend, Ind.); purchased Enzyme Research Laboratories
Nature of the test: Inhibitor specificity IC50 assay, Factor XIa (Boc-Gln-Gly-Arg-AMC). The settings on record: substrate Boc-Gln-Gly-Arg-AMC. The method, then:
(§1) Activated human plasma kallikrein (Enzyme Research Laboratories, HPKa 1303) was reacted with H-Pro-Phe-Arg-7-amido-4-methylcoumarin (H-Pro-Pre-Arg-AMC) (a fluorogenic substrate for plasma as well as pancreatic and urinary kallikreins; Bachem I-1295) and candidate inhibitory peptides to determine the IC50 of the inhibitor.
(§2) Ten 8-fold serial dilutions of peptides (10 mM DMSO stocks) were performed in DMSO and then added to TCNB (50 mM Tris-HCl pH 7.2, 150 mM NaCl, 10 mM CaCl2, 0.05% Brij-35) and sonicated. 50 μL of the peptide dilutions were added to microtitre plates (96 well, black non-binding surface, Corning, 3650) and incubated for 5 minutes at room temperature with 4 nM activated human kallikrein (final concentration after addition of fluorogenic substrate: 1 nM). The samples were then incubated for 1 hour at room temperature with 2 mM H-Pro-Phe-Arg-AMC (final concentration 500 μM). Relative Fluorescence Units (RFU) were measured at excitation/emission 360 nm/460 nm by a SpectraMax M3.
(§3) To determine the specificity of peptide inhibitors, an IC50 assay, as described in Example 4, was performed on a variety of serine proteases related to human plasma kallikrein. The enzymes tested include mouse plasma kallikrein (R&D Systems, Minneapolis, Minn.), and the human enzymes Factor VIIa (Enzyme Research Laboratories, South Bend, Ind.), Factor Xa (Enzyme Research Laboratories, South Bend, Ind.), Factor XIa (Enzyme Research Laboratories, South Bend, Ind.), Factor XIIa (Enzyme Research Laboratories, South Bend, Ind.), tissue kallikrein KLK13 (R&D Systems, Minneapolis, Minn.), thrombin (Enzyme Research Laboratories, South Bend, Ind.) and plasmin (Enzyme Research Laboratories, South Bend, Ind.).
(§4) Each enzyme was tested with the following specific fluorgenic substrates (available from Bachem; Torrance, Calif.): mouse plasma kallikrein (Pro-Phe-Arg-AMC), Factor VIIa (Boc-Val-Pro-Arg-AMC), Factor Xa (Boc-Gln-Gly-Arg-AMC), Factor XIa (Boc-Gln-Gly-Arg-AMC), Factor XIIa (Boc-Gln-Gly-Arg-AMC), KLK13 (Boc-Val-Pro-Arg-AMC), thrombin (Boc-Val-Pro-Arg-AMC) and plasmin (Boc-Val-Leu-Lys-AMC). Peptide inhibitors R2006, R2010, R2012, R2019, R2023, R2030, R2036, R2041, R2047, R2104 and R2051 were assayed.

In a further test the target is T3, Factor XIIa (Homo sapiens, UniProt P00748).
T3 construct: Factor XIIa (Enzyme Research Laboratories, South Bend, Ind.); purchased Enzyme Research Laboratories
T3 sequence (P00748 373-615 limits assumed): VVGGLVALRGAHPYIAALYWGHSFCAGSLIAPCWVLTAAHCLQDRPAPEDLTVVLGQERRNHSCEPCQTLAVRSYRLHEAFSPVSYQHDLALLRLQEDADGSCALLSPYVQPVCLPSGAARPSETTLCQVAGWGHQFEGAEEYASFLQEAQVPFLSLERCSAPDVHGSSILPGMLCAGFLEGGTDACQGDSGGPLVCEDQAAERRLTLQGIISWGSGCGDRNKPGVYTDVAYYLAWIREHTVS
Briefly: Inhibitor specificity IC50 assay, Factor XIIa (Boc-Gln-Gly-Arg-AMC). The settings on record: substrate Boc-Gln-Gly-Arg-AMC. The procedure:
as §1, §2, §3, §4

The target in a further test is T4, thrombin (Homo sapiens, UniProt P00734).
T4 construct: thrombin (Enzyme Research Laboratories, South Bend, Ind.); purchased Enzyme Research Laboratories
Briefly: Inhibitor specificity IC50 assay, thrombin (Boc-Val-Pro-Arg-AMC). The conditions noted are these: substrate Boc-Val-Pro-Arg-AMC. The method, then:
as §1, §2, §3, §4

A further test concerns the target T5, Factor VIIa (Homo sapiens, UniProt P08709).
T5 construct: Factor VIIa (Enzyme Research Laboratories, South Bend, Ind.); purchased Enzyme Research Laboratories
T5 sequence (P08709 61-212 limits assumed): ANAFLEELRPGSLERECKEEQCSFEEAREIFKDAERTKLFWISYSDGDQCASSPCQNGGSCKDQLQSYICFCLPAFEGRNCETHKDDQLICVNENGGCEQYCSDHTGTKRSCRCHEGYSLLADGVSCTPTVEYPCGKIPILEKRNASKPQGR
T5 sequence (P08709 213-466 limits assumed): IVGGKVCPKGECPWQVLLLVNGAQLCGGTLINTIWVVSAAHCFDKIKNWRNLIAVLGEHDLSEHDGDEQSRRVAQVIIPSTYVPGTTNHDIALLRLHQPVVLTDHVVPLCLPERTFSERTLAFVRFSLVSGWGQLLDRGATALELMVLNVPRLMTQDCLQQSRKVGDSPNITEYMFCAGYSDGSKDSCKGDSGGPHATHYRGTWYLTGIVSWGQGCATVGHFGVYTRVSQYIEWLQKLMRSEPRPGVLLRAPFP
Nature of the test: Inhibitor specificity IC50 assay, Factor VIIa (Boc-Val-Pro-Arg-AMC). The conditions noted are these: substrate Boc-Val-Pro-Arg-AMC. The method, then:
as §2, §3, §4

Another test deals with T6, plasmin (Homo sapiens, UniProt P00747).
T6 construct: plasmin (Enzyme Research Laboratories, South Bend, Ind.); purchased Enzyme Research Laboratories
Briefly: Inhibitor specificity IC50 assay, plasmin (Boc-Val-Leu-Lys-AMC). The conditions noted are these: substrate Boc-Val-Leu-Lys-AMC. The procedure:
as §1, §2, §3, §4

A further test has as its target T7, Factor Xa (Homo sapiens, UniProt P00742).
T7 construct: Factor Xa (Enzyme Research Laboratories, South Bend, Ind.); purchased Enzyme Research Laboratories
Nature of the test: Inhibitor specificity IC50 assay, Factor Xa (Boc-Gln-Gly-Arg-AMC). The conditions noted are these: substrate Boc-Gln-Gly-Arg-AMC. The method, then:
as §1, §2, §3, §4

For the next test, the target named is T8, tissue kallikrein KLK13 (Homo sapiens, UniProt Q9UKR3).
T8 construct: purchased R&D Systems
T8 sequence (Q9UKR3 17-277): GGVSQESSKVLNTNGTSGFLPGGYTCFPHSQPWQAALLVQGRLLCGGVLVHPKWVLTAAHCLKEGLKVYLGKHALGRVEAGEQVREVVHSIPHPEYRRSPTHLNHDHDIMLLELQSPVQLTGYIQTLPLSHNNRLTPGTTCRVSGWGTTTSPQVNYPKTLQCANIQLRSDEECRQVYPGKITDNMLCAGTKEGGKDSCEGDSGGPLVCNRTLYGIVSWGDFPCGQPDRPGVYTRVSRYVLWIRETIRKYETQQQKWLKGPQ
Nature of the test: Inhibitor specificity IC50 assay, KLK13 (Boc-Val-Pro-Arg-AMC). The conditions noted are these: substrate Boc-Val-Pro-Arg-AMC. The method, then:
as §1, §2, §3, §4

For orientation: IC50 means the concentration that gives 50% inhibition.

Numbered stars: 1 amine (or outer) side, 2 acyl side, 3 side chain; on linkers, the order of the positions; unused ones are H or OH. Bridge positions count the residues as written; N and C are the ends. Square brackets hold non-standard residues; d marks the D form. Peptide text beside a SMILES is read from it. * marks the point of attachment. mXylylene = c1cc(C[*:1])cc(C[*:2])c1; Phg = N[C@H](C(=O)O)c1ccccc1; Tle = CC(C)(C)[C@H](N)C(=O)O; Heptanoyl = CCCCCCC(=O)*; Mpa = O=C(O)CCS A value given as a limit tells only on which side of the number the result lay.

T6 sequence (P00747 97-580 limits assumed): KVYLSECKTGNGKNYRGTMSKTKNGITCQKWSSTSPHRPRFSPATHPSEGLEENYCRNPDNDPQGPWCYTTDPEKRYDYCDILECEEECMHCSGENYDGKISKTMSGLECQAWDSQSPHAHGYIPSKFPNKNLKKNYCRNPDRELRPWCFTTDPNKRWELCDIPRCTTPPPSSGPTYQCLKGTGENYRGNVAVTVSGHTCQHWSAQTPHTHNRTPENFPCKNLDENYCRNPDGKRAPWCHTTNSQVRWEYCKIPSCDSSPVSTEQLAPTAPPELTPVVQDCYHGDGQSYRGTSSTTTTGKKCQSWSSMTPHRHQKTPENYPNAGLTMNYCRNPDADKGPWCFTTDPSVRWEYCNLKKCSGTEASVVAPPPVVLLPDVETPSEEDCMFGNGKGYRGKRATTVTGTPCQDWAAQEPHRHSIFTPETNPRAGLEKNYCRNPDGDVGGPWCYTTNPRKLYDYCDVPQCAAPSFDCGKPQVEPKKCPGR
T6 sequence (P00747 581-810 limits assumed): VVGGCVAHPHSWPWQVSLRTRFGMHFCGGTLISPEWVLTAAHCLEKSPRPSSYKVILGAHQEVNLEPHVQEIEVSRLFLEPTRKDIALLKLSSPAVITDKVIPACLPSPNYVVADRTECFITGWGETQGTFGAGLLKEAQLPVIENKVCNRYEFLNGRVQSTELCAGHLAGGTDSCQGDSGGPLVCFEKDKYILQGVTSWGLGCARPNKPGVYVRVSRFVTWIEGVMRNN
T7 sequence (P00742 41-179 limits assumed): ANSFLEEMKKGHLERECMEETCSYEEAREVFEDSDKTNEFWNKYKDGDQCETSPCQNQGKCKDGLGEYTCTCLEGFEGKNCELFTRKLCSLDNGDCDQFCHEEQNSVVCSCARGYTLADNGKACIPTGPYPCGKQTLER
T7 sequence (P00742 235-488 limits assumed): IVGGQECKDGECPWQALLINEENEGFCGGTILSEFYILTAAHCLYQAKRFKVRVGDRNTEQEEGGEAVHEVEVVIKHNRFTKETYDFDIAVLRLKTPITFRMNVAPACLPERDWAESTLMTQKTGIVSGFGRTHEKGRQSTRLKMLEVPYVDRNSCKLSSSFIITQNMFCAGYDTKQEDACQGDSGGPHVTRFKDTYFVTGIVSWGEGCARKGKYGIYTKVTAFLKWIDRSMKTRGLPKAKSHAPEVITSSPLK
T2 sequence (P03951 19-387 limits assumed): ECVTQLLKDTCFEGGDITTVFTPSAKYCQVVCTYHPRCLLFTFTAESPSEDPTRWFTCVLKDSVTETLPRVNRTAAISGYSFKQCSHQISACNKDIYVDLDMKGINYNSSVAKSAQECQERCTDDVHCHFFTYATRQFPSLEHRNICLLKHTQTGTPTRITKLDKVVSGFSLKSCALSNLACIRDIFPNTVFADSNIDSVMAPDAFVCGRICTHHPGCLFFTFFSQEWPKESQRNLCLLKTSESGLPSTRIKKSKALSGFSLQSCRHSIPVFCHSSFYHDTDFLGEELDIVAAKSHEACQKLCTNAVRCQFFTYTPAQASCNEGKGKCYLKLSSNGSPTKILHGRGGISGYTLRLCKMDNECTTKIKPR
T2 sequence (P03951 388-625 limits assumed): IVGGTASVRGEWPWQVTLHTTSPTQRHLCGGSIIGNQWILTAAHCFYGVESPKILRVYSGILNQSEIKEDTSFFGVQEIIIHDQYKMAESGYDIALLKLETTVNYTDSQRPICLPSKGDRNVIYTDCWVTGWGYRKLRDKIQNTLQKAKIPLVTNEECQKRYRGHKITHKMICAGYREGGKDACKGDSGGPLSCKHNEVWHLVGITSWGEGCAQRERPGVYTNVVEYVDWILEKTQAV
T1 sequence (P03952 20-390 limits assumed): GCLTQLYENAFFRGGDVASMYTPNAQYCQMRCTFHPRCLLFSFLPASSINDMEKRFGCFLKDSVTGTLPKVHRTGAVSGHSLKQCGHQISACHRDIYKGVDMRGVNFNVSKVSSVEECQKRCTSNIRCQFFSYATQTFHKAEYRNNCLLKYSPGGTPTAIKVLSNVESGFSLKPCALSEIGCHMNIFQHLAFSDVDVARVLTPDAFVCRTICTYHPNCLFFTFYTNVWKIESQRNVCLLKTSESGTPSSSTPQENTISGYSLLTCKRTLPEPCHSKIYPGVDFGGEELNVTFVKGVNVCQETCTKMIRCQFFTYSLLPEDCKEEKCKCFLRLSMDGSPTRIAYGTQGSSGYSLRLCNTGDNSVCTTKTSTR
T1 sequence (P03952 391-638 limits assumed): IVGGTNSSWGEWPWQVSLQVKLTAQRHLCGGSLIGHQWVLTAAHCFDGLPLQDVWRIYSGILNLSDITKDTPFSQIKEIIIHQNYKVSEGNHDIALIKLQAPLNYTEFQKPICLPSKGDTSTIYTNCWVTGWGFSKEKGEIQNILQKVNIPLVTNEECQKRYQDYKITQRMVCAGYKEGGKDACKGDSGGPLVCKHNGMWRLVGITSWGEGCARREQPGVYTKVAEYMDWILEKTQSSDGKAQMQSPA

As to `CC(=O)N[C@H]1CSCc2cccc(c2)CSC[C@@H](C(=O)N[C@@H](CCCNC(=N)N)C(=O)N[C@H](C(N)=O)C(C)(C)C)NC(=O)[C@H](c2ccccc2)NC(=O)[C@H](CO)NC(=O)[C@H](C)NC1=O` [Compound R2036, [mXylyl(1,5)]Ac-CAS-Phg-CR-Tbg-NH2] (Ac-CAS[Phg]CR[Tle]-NH2; linker 1-5 via mXylylene), the half-inhibitory concentration (IC50) at human plasma kallikrein was 0.0064 µM; on Factor XIa, above 4.8 µM; at Factor XIIa, above 100 µM; against thrombin, above 100 µM; at Factor VIIa, above 100 µM; on plasmin, above 19.5 µM. Besides, the IC50 against Factor Xa was above 7 µM; at tissue kallikrein KLK13, above 100 µM.
Consider `CCCCCCC(=O)N[C@H]1CSCc2cccc(c2)CSC[C@@H](C(=O)N[C@@H](CCCNC(=N)N)C(=O)N[C@H](C(N)=O)C(C)C)NC(=O)[C@H]([C@@H](C)CC)NC(=O)[C@H](CO)NC(=O)[C@H](CCC(=O)O)NC1=O` [Compound R2041, [mXylyl(1,5)]Heptanoyl-CESICRV-NH2] (Heptanoyl-CESICRV-NH2; linker 1-5 via mXylylene), for which the IC50 is 0.0242 µM at human plasma kallikrein; above 5.4 µM on Factor XIa; above 100 µM on Factor XIIa; above 100 µM on thrombin; above 17.9 µM at Factor VIIa; above 100 µM against plasmin. Also, the values for the IC50 against Factor Xa and at tissue kallikrein KLK13 were above 7 µM and above 100 µM, respectively.
For `CC[C@H](C)[C@@H]1NC(=O)[C@H](CO)NC(=O)[C@H](CCC(=O)O)NC(=O)CCSCc2cccc(c2)CSC[C@@H](C(=O)N[C@@H](CCCNC(=N)N)C(=O)N[C@H](C(N)=O)C(C)C)NC1=O` [Compound R2051, [mXylyl(1,5)](des-NH2)C-ESICRV-NH2] ([Mpa]ESICRV-NH2; linker 1-5 via mXylylene), the IC50 at human plasma kallikrein is 0.0129 µM; against Factor XIa, above 8.3 µM; on Factor XIIa, above 100 µM; on thrombin, above 100 µM; against Factor VIIa, above 100 µM; against plasmin, above 100 µM. Also, the IC50 against Factor Xa and on tissue kallikrein KLK13 was above 100 µM throughout.

These data come from patent publication US9999650B2, “Peptide and peptidomimetic inhibitors” (Ra Pharmaceuticals, Inc., priority 2012, dated 2018).
